Reference: patent US7906110B2, “Rapid preparation of stem cell matrices for use in tissue and organ treatment and repair” (University of Pittsburgh—of the Commonwealth System of …, priority 2001, dated 2011)

Test system: spontaneous contractile activity of MDSC/SIS preparations
Experiment: Pharmacological evaluation on spontaneous contractile activity of MDSC/SIS
Assay type: cell-based
Conditions: for effect on spontaneous contractile activity in MDSC/SIS specimens: added to bath: carbachol 10 and 20 μM, KCI 7%, 1 M, EGTA 200 μM in Ca++-free Krebs
Procedure: Twenty five preparations of MDSC/SIS and twenty five control preparations of SIS only were incubated at 37° C. for 1, 4, or 8 weeks. The specimens were then mounted in a thermally controlled bath of 5 ml at 37° C. in Krebs solution (mmol/L: NaCl, 113; KCI, 4.7; CaCl2,1.25; MgSO4,1.2; NaHCO3, 25; KH2PO4, 1.2 and glucose, 11.5) with a mixture of 95% 02 and 5% C02. The frequency and amplitude of isometric contractions were measured with strain gauge transducers coupled with a TBM4 strain gauge amplifier and recorded on a computer using a data acquisition program (Windaq, DATAQ Instruments Inc. Akron, Ohio). After 60 minutes of equilibration, electrical field stimuli (10 Hz, 150 volt, 0.5 ms, 60 sec) were applied in the bath. Pharmacological evaluations were performed with succinylcholine (S-Chol), (4, 10 and 20 μM); carbachol (10 and 20 μM); KCI, (7%, 1 M); Ca^++-free Krebs solution with EGTA (200 μM); or distilled water, were each added to the bath sequentially at 30 minute intervals. The frequency, amplitude, and pattern of contraction of the specimens were compared among the different groups.

O=C(O)CN(CCOCCOCCN(CC(=O)O)CC(=O)O)CC(=O)O [EGTA]
effect on spontaneous contractile activity in MDSC/SIS specimens: blocked

C[N+](C)(C)CCOC(=O)CCC(=O)OCC[N+](C)(C)C [succinylcholine]
effect on frequency, amplitude or pattern of spontaneous activity (4 μM, any of the preparations): did not alter | frequency and amplitude of spontaneous contractile activity decreased (4-week MDSC/SIS, 10 μM): 2 of 5 | frequency and amplitude of spontaneous contractile activity decreased (4-week MDSC/SIS, 20 μM): 5 of 5 | spontaneous contractile activity blocked (4-week MDSC/SIS, 20 μM): 2 of 5 | frequency and amplitude of spontaneous contractile activity decreased (8-week MDSC/SIS, 10 μM): 8 of 8 | effect on frequency and amplitude of spontaneous contractile activity (8-week MDSC/SIS, 20 μM): decreased | spontaneous contractile activity blocked (8-week MDSC/SIS, 20 μM): 5 of 8 | reversibility of suppressant effects (after washout of the drug): reversible

[Cl-].[K+] [KCI]
effect on spontaneous contractile activity in MDSC/SIS specimens: did not alter

C[N+](C)(C)CCOC(N)=O [carbachol]
effect on spontaneous contractile activity in MDSC/SIS specimens: did not alter
